Laboratory results published in PubChem BioAssay AID256 (DTP/NCI, 2004).
Several values for one entry are separate records, joined by “and”; a condition that tells them apart may be missing. Identical values can stand only once. Toxic doses and inconclusive results are not listed. The calls were made as follows: active = survival T/C of 150% or more; inactive = T/C below 125% in these data.

Test system: CD2F1 mice, L1210 leukemia ip, survival T/C
Test: NCI In Vivo Anticancer Drug Screen. Data for tumor model L1210 Leukemia (intraperitoneal) in CD2F1 (CDF1) mice
Conditions: endpoint: mean survival time, higher = longer survival
Procedure, shortened: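 Each value reflects a quotient of treated over vehicle control outcomes in mice with a transplanted tumor.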

[1] = dose: 100.0 mg/kg/injection, schedule: Q01DX009 (ip), vehicle: saline with Tween-80
[2] = dose: 200.0 mg/kg/injection, schedule: Q01DX009 (ip), vehicle: saline with Tween-80
[3] = dose: 400.0 mg/kg/injection, schedule: Q01DX009 (ip), vehicle: saline with Tween-80
[4] = dose: 100.0 mg/kg/injection, schedule: Q04DX003 (ip), vehicle: Klucel (hydroxypropylcellulose) (HPC)
[5] = dose: 200.0 mg/kg/injection, schedule: Q04DX003 (ip), vehicle: Klucel (hydroxypropylcellulose) (HPC)
[6] = dose: 400.0 mg/kg/injection, schedule: Q04DX003 (ip), vehicle: Klucel (hydroxypropylcellulose) (HPC)
[7] = dose: 100.0 mg/kg/injection, schedule: Q01DX001 (ip), vehicle: saline with Tween-80
[8] = dose: 400.0 mg/kg/injection, schedule: Q01DX001 (ip), vehicle: saline with Tween-80
[9] = dose: 200.0 mg/kg/injection, schedule: Q01DX001 (ip), vehicle: saline with Tween-80

Measured: T/C

O=C(N/N=C\c1cc(Br)cc(Br)c1O)N/N=C/c1cc(Br)cc(Br)c1O
inactive: dose: 25.0 mg/kg/injection, schedule: Q01DX009 (ip), vehicle: saline with Tween-80 117 % of control | dose: 50.0 mg/kg/injection, schedule: Q01DX009 (ip), vehicle: saline with Tween-80 104 % of control and 111 % of control | [1] 116 % of control and 122 % of control | [2] 118 % of control and 94 % of control | [3] 116 % of control and 88 % of control

O=C(CCl)N1CCc2ccccc21
inactive: [4] 98 % of control | [5] 103 % of control | [6] 97 % of control

C#CCCOC(=O)Nc1ccccc1
inactive: [4] 97 % of control | [5] 100 % of control | [6] 110 % of control

CC1(C)C2C3C=CC(C3)C2S1(=O)=O (configuration not stated)
inactive: dose: 1.25 mg/kg/injection, schedule: Q01DX009 (ip), vehicle: saline with Tween-80 100 % of control | dose: 1.25 mg/kg/injection, schedule: Q04DX003 (ip), vehicle: saline with Tween-80 110 % of control | dose: 2.5 mg/kg/injection, schedule: Q01DX001 (ip), vehicle: saline 100 % of control | dose: 2.5 mg/kg/injection, schedule: Q01DX009 (ip), vehicle: saline with Tween-80 101 % of control | dose: 2.5 mg/kg/injection, schedule: Q04DX003 (ip), vehicle: saline with Tween-80 100 % of control | dose: 5.0 mg/kg/injection, schedule: Q01DX001 (ip), vehicle: saline 100 % of control | dose: 5.0 mg/kg/injection, schedule: Q01DX009 (ip), vehicle: saline with Tween-80 101 % of control | dose: 5.0 mg/kg/injection, schedule: Q04DX003 (ip), vehicle: saline with Tween-80 107 % of control

COc1cc2c(cc1OCc1ccccc1)NC(=O)C2
inactive: [7] 91 % of control | [8] 86 % of control

O=c1cc(O)cnn1C1OC(CO)C(O)C1O (configuration not stated)
inactive: dose: 25.0 mg/kg/injection, schedule: Q01DX009 (ip), vehicle: water 118 % of control and 110 % of control | dose: 50.0 mg/kg/injection, schedule: Q01DX009 (ip), vehicle: water 114 % of control and 117 % of control and 112 % of control | dose: 100.0 mg/kg/injection, schedule: Q01DX009 (ip), vehicle: water 118 % of control (2×) and 108 % of control | dose: 200.0 mg/kg/injection, schedule: Q01DX009 (ip), vehicle: water 117 % of control and 108 % of control | dose: 400.0 mg/kg/injection, schedule: Q01DX009 (ip), vehicle: water 119 % of control

CN1C(=O)CC(c2ccc(N3C(=O)C=CC3=O)cc2)C1=O (configuration not stated)
inactive: dose: 6.25 mg/kg/injection, schedule: Q04DX002 (ip), vehicle: saline with Tween-80 96 % of control | dose: 12.5 mg/kg/injection, schedule: Q04DX002 (ip), vehicle: saline with Tween-80 103 % of control | dose: 25.0 mg/kg/injection, schedule: Q04DX002 (ip), vehicle: saline with Tween-80 96 % of control

O=[N+]([O-])c1ccc2c(c1)COCO2
inactive: [1] 97 % of control | [2] 97 % of control | [3] 96 % of control

N#CC(c1ccccc1)N(c1ccc(NS(=O)(=O)c2ccccc2)cc1)S(=O)(=O)c1ccccc1 (configuration not stated)
inactive: [7] 93 % of control | [9] 96 % of control | [8] 89 % of control

CC(=O)Nc1cccc(Cl)c1
inactive: [7] 92 % of control | [1] 106 % of control | dose: 100.0 mg/kg/injection, schedule: Q04DX003 (ip), vehicle: saline with Tween-80 98 % of control and 103 % of control | [9] 100 % of control | [2] 96 % of control | dose: 200.0 mg/kg/injection, schedule: Q04DX003 (ip), vehicle: saline with Tween-80 98 % of control and 116 % of control | [8] 94 % of control | [3] 91 % of control | dose: 400.0 mg/kg/injection, schedule: Q04DX003 (ip), vehicle: saline with Tween-80 94 % of control and 109 % of control

CN(C)C(c1ccccc1)P(=O)(O)O (configuration not stated)
inactive: dose: 100.0 mg/kg/injection, schedule: Q04DX003 (ip), vehicle: saline 98 % of control | dose: 200.0 mg/kg/injection, schedule: Q04DX003 (ip), vehicle: saline 101 % of control | dose: 400.0 mg/kg/injection, schedule: Q04DX003 (ip), vehicle: saline 98 % of control
